33 compounds from PMC11859905, “Flavonoids as Potential Modulators of Pancreatic Lipase Catalytic Activity” (Pharmaceutics, 2025) can be followed below.

In one experiment the target is T1, human pancreatic lipase (Homo sapiens, UniProt P16233).
T1 construct: PL from the human pancreas (triacylglycerol acyl hydrolase, EC 3.1.1.3); from tissue; host or cells: human pancreas
T1 sequence (P16233 17-465): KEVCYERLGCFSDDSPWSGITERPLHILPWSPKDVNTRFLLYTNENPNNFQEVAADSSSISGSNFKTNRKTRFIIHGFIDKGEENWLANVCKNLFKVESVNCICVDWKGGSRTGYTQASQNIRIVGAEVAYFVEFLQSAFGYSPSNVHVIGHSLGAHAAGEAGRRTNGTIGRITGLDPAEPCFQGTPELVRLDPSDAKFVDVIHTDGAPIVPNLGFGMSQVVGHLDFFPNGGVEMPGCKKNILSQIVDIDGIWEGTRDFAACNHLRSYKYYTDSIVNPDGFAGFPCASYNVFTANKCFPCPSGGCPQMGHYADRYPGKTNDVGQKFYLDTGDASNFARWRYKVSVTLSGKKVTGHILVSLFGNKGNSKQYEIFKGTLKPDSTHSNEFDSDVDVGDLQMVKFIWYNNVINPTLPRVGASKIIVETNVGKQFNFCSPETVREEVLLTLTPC
As to the kind of experiment: In vitro assay using human pancreatic lipase (4-MUO hydrolysis, fluorometric).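 For all read-outs here: Read-out is the initial rate of fluorescent 4-MU release as HPL cleaves the 4-MUO substrate, a rate that scales with the amount of enzyme.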 Particulars: for inhibitory activity against HPL (in words): at the maximum concentration that could be tested; for IC50: human PL 2 U/mL, 4-MUO 0.05 mM, mean ± SEM. Type of experiment: biochemical.

In experiment [1] the target is T2, porcine pancreatic lipase (Sus scrofa, UniProt P00591).
T2 sequence (P00591 1-450): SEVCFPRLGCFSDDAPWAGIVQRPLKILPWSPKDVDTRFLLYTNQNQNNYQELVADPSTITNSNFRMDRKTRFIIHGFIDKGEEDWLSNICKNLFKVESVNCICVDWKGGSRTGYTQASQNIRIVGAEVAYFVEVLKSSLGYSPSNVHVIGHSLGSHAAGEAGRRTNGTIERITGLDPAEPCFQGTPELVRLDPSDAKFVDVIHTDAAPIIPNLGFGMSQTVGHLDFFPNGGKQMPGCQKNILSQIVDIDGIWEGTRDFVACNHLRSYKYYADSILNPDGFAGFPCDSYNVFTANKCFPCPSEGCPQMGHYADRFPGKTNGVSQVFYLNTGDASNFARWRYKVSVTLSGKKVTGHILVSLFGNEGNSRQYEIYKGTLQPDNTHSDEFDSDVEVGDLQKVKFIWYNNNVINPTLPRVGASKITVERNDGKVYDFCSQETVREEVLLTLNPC
As to the kind of experiment: In vitro assay using porcine pancreatic lipase (4-MUO hydrolysis, fluorometric).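 For all read-outs here: product 4-methylumbeliferone formation tracked fluorometrically, catalytic rate from RFU slope over the 10–30 min window, compounds checked beforehand for own fluorescence, at least three independent experiments.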 Conditions: for inhibitory activity against PPL (in words): at the maximum concentration that could be tested.

[2] abbreviates: at 50 μM, read-out: PL Inhibition (%) ± SEM, Human.
Setting [3] is: read-out: PL Inhibition (%) ± SEM, Porcine.
Setting [4] is: read-out: PL Inhibition (%) ± SEM, Human.
[5] abbreviates: read-out: PL Inhibition (%) ± SEM, Human, at 50 μM.

Like-named read-outs stand apart in the source and are kept apart here. Some results are limits rather than exact numbers.

By inhibition is commonly meant the drop in the measured response relative to a control, in per cent. With `O=c1c(O)c(-c2ccc(O)cc2)oc2c(O)c(O)cc(O)c12` [Flavonoid 46, Herbacetin], the inhibition at 50 µM on human pancreatic lipase (setting [2]) turned out to be 39 ± 3%; in experiment [1] (setting [3]) it was 46 ± 4%.
`C[C@@H]1O[C@@H](OC[C@H]2O[C@@H](Oc3c(-c4ccc(O)c(O)c4)oc4cc(O)cc(O)c4c3=O)[C@H](O)[C@@H](O)[C@@H]2O)[C@H](O)[C@H](O)[C@H]1O` [Flavonoid 32, Rutin]: the inhibition at 50 µM at human pancreatic lipase (setting [2]) was 34 ± 1%; in experiment [1] (setting [3]), below 30%. For the same compound, the “inhibitory activity against HPL (in words)” value on human pancreatic lipase is listed as “did not show significant inhibitory activity”. Further, the “inhibitory activity against PPL (in words)” value in experiment [1] is “did not show significant inhibitory activity”.
Take `O=c1cc(-c2ccc(O)c(O)c2)oc2cccc(O)c12` [Flavonoid 8]: the inhibition at 50 µM is below 30% on human pancreatic lipase (setting [4]) and 46 ± 2% in experiment [1] (setting [3]).
Take `O=c1cc(-c2ccccc2)oc2cccc(O)c12` [Flavonoid 5]: the inhibition at 50 µM (on human pancreatic lipase (setting [2]); in experiment [1] (setting [3])) was below 30% each time.
Regarding `O=c1cc(-c2cccc(O)c2)oc2cc(O)ccc12` [Flavonoid 10], the inhibition at 100 µM (at human pancreatic lipase (setting [4]); in experiment [1] (setting [3])) was below 30% throughout.
For the compound `O=c1cc(-c2ccccc2)oc2cc(O)ccc12` [Flavonoid 9], the inhibition at 50 µM (at human pancreatic lipase (setting [5]); in experiment [1] (setting [3])) was below 30% throughout.
As to `O=c1c(O)c(-c2ccc(O)c(O)c2)oc2cc(O[C@@H]3O[C@H](CO)[C@@H](O)[C@H](O)[C@H]3O)cc(O)c12` [Flavonoid 33, Quercimeritrin], the inhibition at 50 µM (on human pancreatic lipase (setting [2]); in experiment [1] (setting [3])) was below 30% in each case. For the same compound, the “inhibitory activity against HPL (in words)” value at human pancreatic lipase is reported as “did not show significant inhibitory activity”. Moreover, in experiment [1], the “inhibitory activity against PPL (in words)” value is “did not show significant inhibitory activity”.
On to `O=c1c(O)c(-c2ccc(O)cc2)oc2cc(OC3OC(CO)C(O)C(O)C3O)cc(O)c12` (centres unmarked) [Flavonoid 26, Populnin], for which the inhibition at 100 µM (at human pancreatic lipase (setting [4]); in experiment [1] (setting [3])) was below 30% each time. On human pancreatic lipase, the “inhibitory activity against HPL (in words)” value was “did not show significant inhibitory activity”. In addition, the “inhibitory activity against PPL (in words)” value in experiment [1] is listed as “did not show significant inhibitory activity”.
Consider `O=c1c(OC2OC(CO)C(O)C(O)C2O)c(-c2ccc(OC3OC(CO)C(O)C(O)C3O)c(O)c2)oc2cc(O)cc(O)c12` (centres unmarked) [Flavonoid 35], for which the “inhibitory activity against HPL (in words)” value on human pancreatic lipase is “did not show significant inhibitory activity”. The inhibition at 50 µM (at human pancreatic lipase (setting [5]); in experiment [1] (setting [3])) was below 30% throughout. For the same compound, the “inhibitory activity against PPL (in words)” value in experiment [1] was “did not show significant inhibitory activity”.
With `O=c1c(O)c(-c2ccc(O)c(O)c2)oc2c(O)c(O)cc(O)c12` [Flavonoid 47, Gossypetin], the inhibition at 50 µM at human pancreatic lipase (setting [5]) came out at 37 ± 1%; in experiment [1] (setting [3]), 36 ± 3%.
Broadly, the IC50 is the concentration at which inhibition is half-maximal. Regarding `O=c1cc(-c2cccc(O)c2)oc2cc(O)cc(O)c12` [Flavonoid 14], the half-maximal inhibitory concentration (IC50) came to 54 ± 5 µM at human pancreatic lipase and 73 ± 7 µM in experiment [1].
Consider `O=c1c(O[C@@H]2O[C@H](CO)[C@@H](O)[C@H](O)[C@H]2O)c(-c2ccc(O)cc2)oc2cc(O)cc(O)c12` [Flavonoid 25, Astragalin], for which the results for the inhibition at 50 µM (on human pancreatic lipase (setting [2]); in experiment [1] (setting [3])) were 34 ± 1% and below 30%, respectively. Also, the “inhibitory activity against HPL (in words)” value against human pancreatic lipase is given as “did not show significant inhibitory activity”. In experiment [1], the “inhibitory activity against PPL (in words)” value was “did not show significant inhibitory activity”.
Consider `O=c1cc(-c2ccccc2)oc2cc(O)cc(O)c12` [Flavonoid 13, Chrysin], for which the inhibition at 50 µM (on human pancreatic lipase (setting [2]); in experiment [1] (setting [3])) was below 30% in each case.
In the case of `O=c1c(O)c(-c2ccc(O)c(O)c2)oc2c(O)c(O)ccc12` [Flavonoid 45, Melanoxetin], the inhibition at 25 µM (at human pancreatic lipase (setting [4]); in experiment [1] (setting [3])) was below 30% throughout.
Take `O=c1cc(-c2ccc(O)c(O)c2)oc2ccccc12` [Flavonoid 4]: the inhibition at 100 µM (at human pancreatic lipase (setting [4]); in experiment [1] (setting [3])) was below 30% in each case.
As for `O=c1c(O)c(-c2ccc(O)cc2)oc2c(O)c(O)ccc12` [Flavonoid 44], the inhibition at 50 µM was below 30% on human pancreatic lipase (setting [2]) and 42 ± 2% in experiment [1] (setting [3]).
Consider `O=c1cc(-c2ccccc2)oc2ccccc12` [Flavonoid 1, Flavone], for which the inhibition at 100 µM (on human pancreatic lipase (setting [4]); in experiment [1] (setting [3])) was below 30% in each case.
Take `O=c1cc(-c2cccc(O)c2)oc2cccc(O)c12` [Flavonoid 6]: the inhibition at 25 µM at human pancreatic lipase (setting [4]) is 32.3 ± 0.1%; in experiment [1] (setting [3]) it was below 30%.
For the compound `O=c1c(O)c(-c2ccc(O)cc2)oc2cc(O)cc(O)c12` [Flavonoid 24, Kaempferol], the inhibition at 100 µM at human pancreatic lipase (setting [4]) came to 39 ± 3%. Besides, the IC50 in experiment [1] (read-out: IC50 (μM) ± SEM, Porcine, porcine PL 0.04 mg/mL, 4-MUO 0.05 mM, mean ± SEM) was 79 ± 6 µM.
On to `O=c1c(O)c(-c2ccc(O[C@@H]3O[C@H](CO)[C@@H](O)[C@H](O)[C@H]3O)c(O)c2)oc2cc(O)cc(O)c12` [Flavonoid 34, Spiraeoside], for which the inhibition at 50 µM (at human pancreatic lipase (setting [2]); in experiment [1] (setting [3])) was below 30% throughout. In addition, the “inhibitory activity against HPL (in words)” value on human pancreatic lipase is given as “did not show significant inhibitory activity”. In addition, the “inhibitory activity against PPL (in words)” value in experiment [1] is listed as “did not show significant inhibitory activity”.
For the compound `O=c1cc(-c2cc(O)c(O)c(O)c2)oc2cccc(O)c12` [Flavonoid 36], the IC50 came out at 7 ± 1 µM at human pancreatic lipase and 20 ± 3 µM in experiment [1].
The like results for `O=c1cc(-c2ccccc2)oc2c(O)c(O)cc(O)c12` [Flavonoid 42, Norwogonin] were, in that order, 79 ± 3 µM and 98 ± 9 µM.
In the case of `O=c1cc(-c2ccc(O)c(O)c2)oc2cc(O)cc(O)c12` [Flavonoid 16, Luteolin], the inhibition at 50 µM at human pancreatic lipase (setting [2]) was found to be 54 ± 2%. Besides, the IC50 in experiment [1] stood at 32 ± 2 µM.
As to `O=c1c(O)c(-c2ccc(O)c(O)c2)oc2c(O[C@@H]3O[C@H](CO)[C@@H](O)[C@H](O)[C@H]3O)c(O)cc(O)c12` [Flavonoid 48, Gossypin], the inhibition at 12.5 µM at human pancreatic lipase (at 12.5 μM, read-out: PL Inhibition (%) ± SEM, Human) was below 30%; in experiment [1] (setting [3]), below 30%. The “inhibitory activity against HPL (in words)” value against human pancreatic lipase is listed as “did not show significant inhibitory activity”. Moreover, the “inhibitory activity against PPL (in words)” value in experiment [1] is recorded as “did not show significant inhibitory activity”.
Turning to `O=c1c(O)c(-c2ccc(O)c(O)c2)oc2ccccc12` [Flavonoid 18], the inhibition at 50 µM amounted to 44 ± 5% at human pancreatic lipase (setting [2]) and 41 ± 4% in experiment [1] (setting [3]). Besides, at human pancreatic lipase, the “inhibitory activity against HPL (in words)” value is “did not show significant inhibitory activity”. Besides, the “inhibitory activity against PPL (in words)” value in experiment [1] was “did not show significant inhibitory activity”.
As for `O=c1cc(-c2ccc(O)cc2)oc2ccccc12` [Flavonoid 3], the inhibition at 25 µM (at human pancreatic lipase (setting [4]); in experiment [1] (setting [3])) was below 30% each time.
As for `Oc1cc(O)c2c(c1)O[C@H](c1ccc(O)c(O)c1)[C@H](O)C2` [Flavonoid 39, (–)-Epicatechin], the inhibition at 100 µM (on human pancreatic lipase (setting [4]); in experiment [1] (setting [3])) was below 30% throughout.
For the compound `O=c1c(-c2ccc(O)cc2)coc2cc(O)cc(O)c12` [Flavonoid 17, Genistein], the inhibition at 100 µM (on human pancreatic lipase (setting [4]); in experiment [1] (setting [3])) was below 30% throughout. In addition, on human pancreatic lipase, the “inhibitory activity against HPL (in words)” value is “did not show significant inhibitory activity”. In addition, the “inhibitory activity against PPL (in words)” value in experiment [1] is listed as “did not show significant inhibitory activity”.
For `O=c1cc(-c2ccc(O)cc2)oc2cccc(O)c12` [Flavonoid 7], the inhibition at 25 µM (at human pancreatic lipase (setting [4]); in experiment [1] (setting [3])) was below 30% each time.
As for `O=c1c(OC2OC(CO)C(O)C(O)C2O)c(-c2ccc(O)c(O)c2)oc2cc(O)cc(O)c12` (centres unmarked) [Flavonoid 31], the inhibition at 50 µM (on human pancreatic lipase (setting [2]); in experiment [1] (setting [3])) was below 30% throughout. Besides, the “inhibitory activity against HPL (in words)” value against human pancreatic lipase is given as “did not show significant inhibitory activity”. Also, the “inhibitory activity against PPL (in words)” value in experiment [1] is given as “did not show significant inhibitory activity”.
Consider `Oc1cc(O)c2c(c1)OC(c1cc(O)c(O)c(O)c1)C(O)C2` (single isomer, unassigned; (-)) [Flavonoid 40, (–)-Epigallocatechin], for which the inhibition at 100 µM (on human pancreatic lipase (setting [4]); in experiment [1] (setting [3])) was below 30% throughout.
For the compound `O=c1cc(-c2ccc(O)c(O)c2)oc2c(O)c(O)ccc12` [Flavonoid 43], the inhibition at 50 µM (at human pancreatic lipase (setting [2]); in experiment [1] (setting [3])) was below 30% each time.
Turning to `CCCCCCc1c(-c2ccc(O)c(O)c2)oc2cc(O)cc(O)c2c1=O` [Flavonoid 29], the results for the IC50 (on human pancreatic lipase; in experiment [1]) were 16.4 ± 0.7 µM and 10.1 ± 0.4 µM, respectively.
